# pIC50: −log10 of the molar value.
# Molecular target: Transitional endoplasmic reticulum ATPase (Mus musculus, UniProt Q01853)
# Experiment: Inhibition Assay: Mouse VCP cDNA was added with a DNA sequence corresponding to histidine tag at the amino-terminal, subcloned into a baculovirus vector pVL1392 (BD Bioscience), and expressed in Sf-9 insect cells. The protein was purified with a nickel column (GE Healthcare). The concentration of the protein was adjusted to 0.25-0.5 ug/ml and the protein was stored in a solution containing 50 mM TrisCl pH 8.0, 5 mM EDTA, 10% glycerol, and 15 mM DTT. The ATPase activity was determined as follows. 500 ng of the purified VCP was mixed with 100 uM [gamma-32P]ATP (18.5 GBq/mmol) and the test substance in 20 uL of ATPase buffer (20 mM HEPES (pH7.4), 50 mM KCl, 5 mM MgCl2, 15 mM DTT), and incubated at 37° C. for 10 minutes.The enzyme reaction was stopped with addition of 200 uL of an ice-cold solution containing 7% TCA and 1 mM K2HPO4. 50ul of a solution containing 3.75% ammonium molybdate and 0.02M tungstate silicic/3 NH2SO4 was added, followed by 300 uL of […].
# Sequence of Transitional endoplasmic reticulum ATPase (Q01853 whole entry): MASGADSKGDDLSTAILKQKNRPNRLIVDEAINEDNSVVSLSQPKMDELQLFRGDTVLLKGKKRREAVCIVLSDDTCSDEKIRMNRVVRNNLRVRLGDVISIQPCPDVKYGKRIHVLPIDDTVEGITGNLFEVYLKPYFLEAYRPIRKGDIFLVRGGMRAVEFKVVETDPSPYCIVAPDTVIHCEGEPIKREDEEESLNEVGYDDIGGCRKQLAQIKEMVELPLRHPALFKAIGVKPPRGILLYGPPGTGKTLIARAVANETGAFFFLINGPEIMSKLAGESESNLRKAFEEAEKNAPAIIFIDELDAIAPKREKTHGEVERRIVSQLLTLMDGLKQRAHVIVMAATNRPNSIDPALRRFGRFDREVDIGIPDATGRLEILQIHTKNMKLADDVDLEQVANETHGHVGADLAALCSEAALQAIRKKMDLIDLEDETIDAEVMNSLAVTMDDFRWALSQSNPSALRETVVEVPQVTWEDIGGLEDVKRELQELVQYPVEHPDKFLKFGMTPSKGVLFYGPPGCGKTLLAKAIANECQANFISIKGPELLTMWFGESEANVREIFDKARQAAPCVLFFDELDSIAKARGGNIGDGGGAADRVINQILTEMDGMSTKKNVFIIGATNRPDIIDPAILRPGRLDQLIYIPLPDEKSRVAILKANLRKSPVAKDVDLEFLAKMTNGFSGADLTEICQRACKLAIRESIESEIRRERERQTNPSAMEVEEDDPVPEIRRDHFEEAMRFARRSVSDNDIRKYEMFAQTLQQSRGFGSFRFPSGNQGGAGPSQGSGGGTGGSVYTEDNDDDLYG
row,SMILES,pIC50
1,CC(=O)c1ccc(-c2ccc(/N=N/c3cc(S(=O)(=O)O)c4ccccc4c3N)cn2)cc1,6.87
2,Nc1c(/N=N/c2ccc(-c3cc(C(F)(F)F)cc(C(F)(F)F)c3)nc2)cc(S(=O)(=O)O)c2ccccc12,5.56
